Experimental findings from US20100267555A1, “Fungicidal mixtures II” (BASF SE, priority 2007, published 2010) are described below.

Molecules are shown by their SMILES. Where two headings read alike, the source gives them in different places.

Common to all, as to assay type: cell-based
Experiment [1] relates to Septoria tritici. The experiment in a line: Activity against leaf blotch on wheat caused by Septoria tritici in the microtiter test (Septtr). The note with it: single active compound, day 7 after inoculation.
The test system of experiment [2] is Phytophthora infestans. To be noted: single active compound, 7 days after inoculation.
For experiment [3], the system named is Pyricularia oryzae. The experiment in a line: microbe, parasite or virus in culture. To be noted: 7 days after inoculation; for inhibition of growth at 4 ppm: read-out: Observed efficacy, single active compound, 4 ppm; for inhibition of growth at 16 ppm: read-out: Observed efficacy, single active compound, 16 ppm; for inhibition of growth at 0.063 ppm: read-out: Observed efficacy, single active compound, 0.063 ppm; for Observed efficacy: single active compound.

In the case of `Fc1ccc([C@]2(Cn3cncn3)O[C@H]2c2ccccc2Cl)cc1` (racemic) [Epoxiconazole, (2RS,3SR)-1-[3-(2-chlorophenyl)-2,3-epoxy-2-(4-fluorophenyl)propyl]-1H-1,2,4-triazole, reference compound], the Observed efficacy in experiment [1] (0.063 ppm) came to 50%.

Turning to `O=C(OCc1cccc(C(F)(F)F)c1)[C@H](c1ccc(F)cc1F)[C@@H](O)c1cccnc1` (stereo in doubt) [I.57-RS, 3-trifluoromethylphenylmethyl 3-hydroxy-2-(2,4-difluorophenyl)-3-(3-pyridyl)propanoate], the Observed efficacy in experiment [2] (4 ppm) is listed as 3%. In experiment [3] (Pyricularia oryzae, 168 h), the inhibition of growth at 4 ppm was 0% and the inhibition of growth at 16 ppm is 9%. The same molecule displayed an Observed efficacy in experiment [1] (4 ppm) of 26%.

For the molecule `O=C(OCc1cccc(C(F)(F)F)c1)[C@H](c1cccs1)[C@@H](O)c1cccnc1` (stereo in doubt) [I.59-RS, 3-trifluoromethylphenylmethyl 3-hydroxy-2-(2-thienyl)-3-(3-pyridyl)propanoate], the Observed efficacy in experiment [2] (4 ppm) is reported as 11%; in experiment [3] (4 ppm) it was 0%; in experiment [1] (4 ppm) it was 14%. For the same molecule, in experiment [3] (Pyricularia oryzae, 168 h), the inhibition of growth at 0.063 ppm was 1%. For the same molecule, the inhibition of growth at 16 ppm in experiment [3] (Pyricularia oryzae, 168 h) came out at 14%.

Turning to `COC(=O)Nc1nc2ccccc2[nH]1` [Carbendazim, methyl (1H-benzoimidazol-2-yl)-carbamate, reference compound], the inhibition of growth at 0.25 ppm in experiment [3] (Pyricularia oryzae, 168 h, read-out: Observed efficacy, single active compound, 0.25 ppm) was 19%.

Consider `N#Cc1c(Cl)c(Cl)c(Cl)c(C#N)c1Cl` [Chlorothalonil, 2,4,5,6-tetrachloroisophthalonitrile, reference compound], for which the Observed efficacy in experiment [2] (0.25 ppm) is 16%.

The molecule `Cc1ccc(-c2c(Cl)nc(C#N)n2S(=O)(=O)N(C)C)cc1` [Cyazofamid, 4-chloro-2-cyano-N,N-dimethyl-5-(4-methylphenyl)-1H-imidazole-1-sulfonamide, reference compound] gave an Observed efficacy in experiment [2] (0.016 ppm) of 56%.

Take `Cc1cc(C2CC2)nc(Nc2ccccc2)n1` [Cyprodinil, (4-cyclopropyl-6-methylpyrimidin-2-yl)phenylamine, reference compound]: the inhibition of growth at 4 ppm in experiment [3] (Pyricularia oryzae, 168 h) stood at 71%.

Regarding `CO/N=C(/C1=NOCCO1)c1ccccc1Oc1ncnc(Oc2ccccc2Cl)c1F` [Fluoxastrobin, (E)-{2-[6-(2-chlorophenoxy)-5-fluoropyrimidin-4-yloxy]phenyl}(5,6-dihydro-1,4,2-dioxazin-3-yl)methanone O-methyloxime, reference compound], the inhibition of growth at 0.063 ppm in experiment [3] (Pyricularia oryzae, 168 h) came to 57%. In experiment [1] (0.25 ppm), this molecule came in with an Observed efficacy of 58%.

On to `O=C(OCc1cccc(C(F)(F)F)c1)[C@H](c1ccc(F)cc1F)[C@@H](O)c1cccnc1` [I.57-RR, 3-trifluoromethylphenylmethyl 3-hydroxy-2-(2,4-difluorophenyl)-3-(3-pyridyl)propanoate], for which the results for the Observed efficacy in experiment [2] (0.016 ppm) and in experiment [1] (0.063 ppm) were 0% and 4%, respectively.

Take `O=C(OCc1cccc(C(F)(F)F)c1)[C@H](c1cccs1)[C@@H](O)c1cccnc1` [I.59-RR, 3-trifluoromethylphenylmethyl 3-hydroxy-2-(2-thienyl)-3-(3-pyridyl)propanoate]: the figures for the Observed efficacy in experiment [2] (4 ppm) and in experiment [3] (16 ppm) were 7% and 8%, respectively. Moreover, the inhibition of growth at 4 ppm in experiment [3] (Pyricularia oryzae, 168 h) worked out at 0%.

For the molecule `CC(C)NC(=O)N1CC(=O)N(c2cc(Cl)cc(Cl)c2)C1=O` [Iprodione, N-isopropyl-3-(3,5-dichlorophenyl)-2,4-dioxoimidazolidine-1-carboxamide, reference compound], the inhibition of growth at 4 ppm in experiment [3] (Pyricularia oryzae, 168 h) is 18%.

For the molecule `Cc1ccc(C(C)NC(=O)[C@@H](NC(=O)OC(C)C)C(C)C)cc1` (stereo partly drawn) [Iprovalicarb, isopropyl [(1S)-2-methyl-1-(1-p-tolylethylcarbamoyl)propyl]carbamate, reference compound], the Observed efficacy in experiment [2] (0.25 ppm) was 9%.

Turning to `COC=C(C(=O)OC)c1ccccc1COc1cccc(C(F)(F)F)n1` [Picoxystrobin, methyl 3-methoxy-2-[2-(6-trifluoromethylpyridin-2-yloxymethyl)phenyl]acrylate, reference compound], the inhibition of growth at 0.063 ppm in experiment [3] (Pyricularia oryzae, 168 h) came out at 49%.

For the molecule `OC(Cc1ccccc1Cl)(Cn1nc[nH]c1=S)C1(Cl)CC1` (stereo not shown) [Prothioconazol, 2-[2-(1-chlorocyclopropyl)-3-(2-chlorophenyl)-2-hydroxypropyl]-2,4-dihydro-[1,2,4]triazole-3-thione, reference compound], the inhibition of growth at 4 ppm in experiment [3] (Pyricularia oryzae, 168 h) was found to be 15%.
